{"source": "ChEMBL document CHEMBL6127038", "about": "“How many organic small molecules might be used to treat COVID-19? From natural products to synthetic agents” (Eur J Med Chem, 2024)", "tested_on": "SARS-CoV-2", "assay": "Antiviral activity against SARS CoV-2 infected in HEK293 cells overexpressing hACE2 assessed as inhibition of viral infection", "format": "functional, organism-based", "details": "Severe acute respiratory syndrome coronavirus 2, HEK293"}
{"smiles": "NC(=O)CC[C@H](NC(=O)[C@H](Cc1ccc(O)cc1)NC(=O)[C@H](Cc1ccccc1)N1CCN(C(=O)[C@H](CC(=O)O)NC(=O)[C@@H](N)CCC(=O)O)CC1=O)C(N)=O", "values": [{"measurement": "IC50", "value": 15, "unit": "µM"}]}
